Results: publication PMC7259601 (PLoS ONE, 2020)

Assays:
[1] = target: T1, MAO-A (Mus musculus, UniProt Q64133); assay: L-5-HTP-induced symptoms test; assay type: in vivo, CD1 mice
T1 construct: from tissue; host or cells: mouse brain (homogenate ex vivo; living animal in the L-5-HTP test)
T1 sequence (Q64133 1-526): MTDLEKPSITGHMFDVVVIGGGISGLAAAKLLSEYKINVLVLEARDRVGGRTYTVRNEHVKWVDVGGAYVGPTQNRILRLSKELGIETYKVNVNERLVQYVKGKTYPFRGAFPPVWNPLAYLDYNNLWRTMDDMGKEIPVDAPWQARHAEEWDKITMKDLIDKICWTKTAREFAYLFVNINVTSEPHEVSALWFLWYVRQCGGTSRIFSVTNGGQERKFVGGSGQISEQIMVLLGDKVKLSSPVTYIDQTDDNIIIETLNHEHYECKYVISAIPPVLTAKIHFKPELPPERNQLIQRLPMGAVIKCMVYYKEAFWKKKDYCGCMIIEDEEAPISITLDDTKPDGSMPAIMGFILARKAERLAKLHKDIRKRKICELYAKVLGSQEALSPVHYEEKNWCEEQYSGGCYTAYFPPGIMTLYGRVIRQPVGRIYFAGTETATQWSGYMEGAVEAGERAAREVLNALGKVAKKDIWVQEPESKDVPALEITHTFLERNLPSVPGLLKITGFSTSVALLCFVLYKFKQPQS
Protocol: Male C57BL/6 mice (8 weeks of age, 25-30 g) procured from Harlan Interfauna Iberica were housed in the same condition that in MAO-B PEA section. This test was performed essentially as previously described. Test compound was administered p.o. at several dose levels to groups of mice (N = 10/dose) 60 min before an i.p. injection of L-5-HTP (100 mg/kg). This dose of 5-L-HTP produced no effects in control animals. […] Studies were performed in accordance with the institutional guidelines for the care and use of laboratory animals (European Communities Council Directive 86/609/EEC) established by the Ethical Committee for Animal Experimentation at the PRAAL-PCB.
This test was performed essentially as previously described [90](Koe et al., 1983). Test compound was administered p.o. at several dose levels 60 min before an i.p. injection of L-5-HTP. […] One score assigned to each symptom observed per animal, giving a maximal obtainable score of 30 per group of 10 mice.
Behavior was rated as outline above.

[2] = target: MAO-B (Mus musculus, UniProt Q8BW75); conditions: p.o. gavage, followed by 25 mg/kg PEA
[3] = system: SETD1 +/- mice; parameters: method as in PMID 31606247; conditions: cited from earlier work
[4] = system: MAO-B; conditions: 3 mg/kg/day; cited from earlier work
[5] = system: SAMP8 mice; assay: Novel Object Recognition Test (NORT); assay type: in vivo, mouse; conditions: 3 mg/kg/day (Exp4), p = 0.12
Protocol: Both male and female mice from the senescence accelerated strain SAMP8 and its control SAMR1 of different ages (see Table S3 for details) were used in these studies. Mice were breed in the animal facilities of the Pharmacy Faculty (University of Barcelona), maintained in a at 22 ± 2 °C controlled temperature in a 12 hr light / dark cycle (lights on at 8:00 am; 300 lux/0 lux) with ad libitum access to food (2018 TEKLAD, Harlan) and water. Male mice were housed individually (males) or in groups of 4-5 animals (females) in plastic colony boxes with a sawdust bedding material. […] SAMR1 mice treated with vehicle were included as a control. All drugs were administered via drinking water and diluted in vehicle. Drug concentration was calculated weekly in function of body weight and corrected in function of drinking water consumption. Cognitive function was evaluated by NORT, social behavior was evaluated by RI and anxiety and motor function were evaluated by EPM and OF. When necessary, animals were deeply anesthetized (80 mg/kg sodium pentobarbital) and brain samples (hippocampus, (prefrontal) cortex) were micro-dissected and processed according to the downstream analysis.
The protocol was performed as previously described. Briefly, animals were placed in a 90°- two-arm maze. Mice were habituated to the apparatus for 10 min during 3 consecutive days. On day 4, two identical novel objects (A+A or B+B) were placed at the end of each arm and animals performed a 10-min acquisition trial. A 10-min retention trial was carried out 2 hr after the acquisition trial with object A and B. Time exploring the novel (NO) and the familiar object (FO) was measured and a discrimination Index (DI) was defined as (NO-FO)/(NO+FO). In some experiments, a more restrictive threshold was applied and animals exploring less than 5 sec (NO+FO) were excluded from the analysis (Table S3).
Novel Object Recognition Test (NORT): Time exploring the novel (NO) and the familiar object (FO) was measured and a discrimination Index (DI) was defined as (NO-FO)/(NO+FO). In some experiments, a more restrictive threshold was applied and animals exploring less that 5 sec (NO+FO) were excluded from the analysis (Table S3). Open Field (OF): Locomotor activity was analyzed by video-tracking over the captured images using SMART® (v 2.5.21 (rat) or v3.0 (mice), PanLab, SLU, Spain).

[6] = target: T2, brain MAO-B (Mus musculus, UniProt Q8BW75); assay: MPTP neurotoxicity model; assay type: in vivo, C57BL/6 mice; conditions: i.p. 3 mg/kg
T2 construct: from tissue; host or cells: mouse brain (homogenate ex vivo; living animal in the MPTP and PEA tests)

[7] = system: KDM1A-E8a KO mice; parameters: method as in PMID 26976584; conditions: cited from earlier work
[8] = system: NMDA receptor NR1 subunit hypofunction mice; parameters: method as in PMID 30580376; conditions: cited from earlier work

MAO-B (Mus musculus, UniProt Q8BW75), sequence (Q8BW75 whole entry): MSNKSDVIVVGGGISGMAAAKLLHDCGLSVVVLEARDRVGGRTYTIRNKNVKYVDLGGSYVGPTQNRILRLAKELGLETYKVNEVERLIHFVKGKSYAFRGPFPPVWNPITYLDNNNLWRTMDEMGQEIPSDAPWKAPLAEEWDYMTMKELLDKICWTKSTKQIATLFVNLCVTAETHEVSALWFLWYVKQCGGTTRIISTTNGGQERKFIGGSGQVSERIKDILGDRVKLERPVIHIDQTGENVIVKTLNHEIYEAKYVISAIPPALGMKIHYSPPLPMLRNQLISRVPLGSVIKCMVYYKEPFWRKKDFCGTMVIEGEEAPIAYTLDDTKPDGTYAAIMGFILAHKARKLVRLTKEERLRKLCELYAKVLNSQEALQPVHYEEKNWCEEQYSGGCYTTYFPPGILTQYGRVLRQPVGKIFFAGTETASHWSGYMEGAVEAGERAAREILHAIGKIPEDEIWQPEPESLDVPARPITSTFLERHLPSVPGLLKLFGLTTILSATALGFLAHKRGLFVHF
T2 sequence (Q8BW75 whole entry): as above

SMILES: N[C@@H]1C[C@H]1c1ccccc1 (racemic) [TCP, tranylcypromine]
- ED50 potentiation of L-5-HTP-induced symptoms ([1]; p.o. gavage, followed by 100 mg/kg L-5-HTP i.p.): 1.4 mg/kg
- ED50 potentiation of PEA-induced symptoms [2]: 1.1 mg/kg

SMILES: N[C@H]1CC[C@H](N[C@@H]2C[C@H]2c2ccccc2)CC1 [Iadademstat]
- cortical synaptic plasticity deficit and working memory [3]: reversed cortical synaptic plasticity deficit and the working memory

SMILES: C#CCN[C@@H]1CCc2ccccc21 [RSG, rasagiline]
- MAO-B inhibition at the dose used [4]: complete MAO-B inhibition
- NORT discrimination capacity [5]: tendency for improvement without reaching significance
- protection against the MPTP insult [6]: full protection

SMILES: O=C(CCCCCCC(=O)Nc1ccccc1)NO [SAHA]
- deficient stress response and low anxiety phenotype [7]: rescued

SMILES: C#CCN(C)[C@H](C)Cc1ccccc1 [SLG, selegiline]
- ED50 ([1]; mouse, read-out: ED50 potentiation of L-5-HTP-induced symptoms): 42.2 mg/kg

SMILES: Cc1nnc(NC(=O)c2cccc([C@@H]3C[C@H]3NC3CCC3)c2)s1 [T-448]
- learning function [8]: improved the learning function
